# Reference: patent publication US11801255B2, “Lipid disulfide prodrugs and uses related thereto” (priority 2017, dated 2023)
# Like-named read-outs stand apart in the source and are kept apart here.
# Legend:
# HIV-1 = experiment: microbe, parasite or virus in culture; details: for TI(CC50/EC50): HIV-1, PBMCs; for HIV-1 potency compared to parent nucleoside TFV: in words
# Protocol: (§1) Compounds synthesized were evaluated against HIV-infected PBMCs and antiviral activity was assessed by measuring reverse transcriptase in cell supernatants. Compounds 11a-e, 12a-e, and 13 were assayed against HBV and qPCR was used to quantify viral DNA following incubation in HepG2.2.15 cells after 6 days.
# PBMCs = experiment: in vitro; type: cell-based, human
# in vitro = type: cell-based, human; details: human; Table 1; viability of uninfected cells reduced by 50%; read-out: HIV-1 CC50 (PBMCs)
# HBV = experiment: Antiviral activity against HBV in HepG2.2.15 cells, viral DNA by qPCR after 6 days; details: for HBV TI (CC50/EC50): HepG2; for EC50: read-out: HBV EC50 (HepG2)
# Protocol: as §1
# HepG2 = experiment: Cytotoxicity: viability of uninfected HepG2 cells; type: cell-based; details: read-out: HBV CC50 (HepG2)
# [1] = Stability in PBS (pH 7.4), carbonate/bicarbonate buffer (pH 9) and DMEM by LC-MS; details: all examined media except human serum
# Protocol: Compound 11c and 11d were selected as model compounds and subjected to various media including human serum, PBS buffer (pH 7.4), Dulbecco's Modified Eagle Medium (DMEM), and carbonate/bicarbonate buffer (pH 9). Aliquots of each sample were analyzed by LC-MS at varying times points over the course of 2 hours with a final time point at 24 to assess decomposition.
# Experiments were performed to see how compounds how compounds 11c and 11d would fare in the presence of base (pH 9), PBS (pH 7.4), and upon exposure to nucleophilic media (DMEM). […] To this end, the stability of hexadecyloxypropyl 2′-deoxy-2′-fluorouridine, a non-labile alkoxyalkyl lipid conjugate of 2′-deoxy-2′-fluorouridine in PBS buffer using Pyrex, Kimax, and silanized glassware was assessed. […] This prompted re-assessment of the PBS stability of the disulfide lipid conjugates in Kimax glassware. Note that all stability experiments were performed in Kimax glassware using hexadecyloxypropyl 2′-deoxy-2′-fluorouridine as an internal standard.
# [2] = Stability in human plasma/serum by LC-MS; type: in vitro ADME; details: human plasma
# Protocol: Aliquots of each sample were analyzed by LC-MS at varying times points over the course of 2 hours with a final time point at 24 to assess decomposition.
# [3] = monkeys; cited from earlier work
# [4] = rats; cited from earlier work
# [5] = read-out: HIV-1 activity (EC50), PBMCs
# [6] = Table 4, read-out: CC50 (PBMCs)
# [7] = read-out: EC50 (PBMCs), Table 4, HIV-1
# [8] = Table 1, viability of uninfected cells reduced by 50%, read-out: HIV-1 CC50 (PBMCs)
# [9] = read-out: HIV-1 EC50 (PBMCs), Table 1, inhibit HIV-1 by 50%, average of triplicate
# [10] = read-out: HIV-1 EC50 (PBMCs), Table 2
# [11] = Table 2, read-out: HIV-1 CC50 (PBMCs)
compound,measurement,setting,value
CCCCCCCCCCCCCCCCSSCCOP(=O)(COC(C)Cn1cnc2c(N)ncnc21)OC (mixture of isomers) [Compound 13],TI(CC50/EC50),HIV-1; Table 4,"1,500"
same,EC50,HIV-1; [5],0.026 µM
same,CC50,PBMCs; [6],38.2 µM
CCCCCCCCCCCCCCCCSSCCOP(=O)(COC(C)Cn1cnc2c(N)ncnc21)OCC (mixture of isomers) [Compound 14],TI(CC50/EC50),HIV-1; Table 4,104
same,EC50,HIV-1; [7],0.349 µM
same,CC50,PBMCs; [6],36.2 µM
CCCCCCCCCCCCCCCCSSCCOP(=O)(COC(C)Cn1cnc2c(N)ncnc21)OCCC (mixture of isomers) [Compound 15],TI(CC50/EC50),HIV-1; Table 4,49.0
same,EC50,HIV-1; [7],0.216 µM
same,CC50,PBMCs; [6],10.6 µM
CCCCCCCCCCCCCCCCSSCCOP(=O)(COC(C)Cn1cnc2c(N)ncnc21)OCCCC (mixture of isomers) [Compound 16],TI(CC50/EC50),HIV-1; Table 4,150
same,EC50,HIV-1; [7],0.19 µM
same,CC50,PBMCs; [6],27.9 µM
CCCCCCCCCCCCCCCCSSCCOP(=O)(COC(C)Cn1cnc2c(N)ncnc21)OC(C)CC (mixture of isomers) [Compound 17],TI(CC50/EC50),HIV-1; Table 4,480
same,EC50,HIV-1; [7],0.049 µM
same,HIV-1 activity of s-Bu ester relative to n-Bu analogue 16,HIV-1; vs compound 16,nearly four-fold
same,CC50,PBMCs; [6],23.7 µM
CCCCCCCCCCCCCCCCSSCCOP(=O)(COC(C)Cn1cnc2c(N)ncnc21)OCC(C)(C)C (mixture of isomers) [Compound 18],TI(CC50/EC50),HIV-1; Table 4,>700
same,EC50,HIV-1; [5],0.14 µM
same,CC50,PBMCs; [6],> 100 µM
CCCCCCCCCCCCCCCCSSCCOP(=O)(COC(C)Cn1cnc2c(N)ncnc21)OCc1ccccc1 (mixture of isomers) [Compound 19],TI(CC50/EC50),HIV-1; Table 4,"2,300"
same,EC50,HIV-1; [5],0.018 µM
same,CC50,PBMCs; [6],41.1 µM
CCCCCCCCCCCCCCCCSSCCOP(=O)(COC(C)Cn1cnc2c(N)ncnc21)Nc1ccccc1 (mixture of isomers) [Compound 20],TI(CC50/EC50),HIV-1; Table 4,"7,000"
same,EC50,HIV-1; [5],0.005 µM
same,CC50,PBMCs; [6],34.2 µM
CCCCCCCCCCCCCCCCCCOP(=O)(COC(C)Cn1cnc2c(N)ncnc21)OCCSSCCCCCCCCCCCCCCCC (mixture of isomers) [Compound 21],TI(CC50/EC50),HIV-1; Table 4,>50
same,EC50,HIV-1; [5],0.911 µM
same,CC50,PBMCs; [6],> 50 µM
"CCCCCCCCCCCCCCCCOCCCOP(=O)(O)CO[C@H](C)Cn1cnc2c(N)ncnc21 [CMX-157, Hexadecyloxypropyl-Tenofovir, reference compound]",HIV-1 TI (CC50/EC50),HIV-1,>5000
same,EC50,"HIV-1; Human immunodeficiency virus 1, PBMC, read-out: HIV-1 EC50 (PBMCs)",0.02 µM
same,EC50,"HIV-1; Human immunodeficiency virus 1, PBMC, read-out: HIV-1 activity (EC50)",0.02 µM
same,CC50,in vitro,> 100 µM
CCCCCCCCCCSSCCOP(=O)(O)CO[C@H](C)Cn1cnc2c(N)ncnc21.N [Compound 11a],"fold less potent than TDF, HIV-1",HIV-1; EC50 ratio vs TDF,18 fold
same,HIV-1 TI (CC50/EC50),"HIV-1; Table 1, PBMCs",>590
same,EC50,HIV-1; [5],0.085 µM
same,CC50,PBMCs; [8],> 50 µM
same,HBV TI (CC50/EC50),HBV; Table 1,>1
same,EC50,"HBV; Table 1, inhibit HBV by 50%",> 50 µM
same,CC50,"HepG2; Table 1, uninfected cells",> 50 µM
CCCCCCCCCCCCSSCCOP(=O)(O)CO[C@H](C)Cn1cnc2c(N)ncnc21.N [Compound 11b],HIV-1 TI (CC50/EC50),"HIV-1; Table 1, PBMCs","8,300"
same,EC50,HIV-1; [5],0.003 µM
same,"fold more active than CMX-157, HIV-1",HIV-1; vs CMX-157 (20 nM),seven-fold
same,CC50,PBMCs; [8],25 µM
same,HBV TI (CC50/EC50),HBV; Table 1,>30
same,EC50,"HBV; Table 1, inhibit HBV by 50%",1.67 µM
same,CC50,"HepG2; Table 1, uninfected cells",> 50 µM
CCCCCCCCCCCCCCSSCCOP(=O)(O)CO[C@H](C)Cn1cnc2c(N)ncnc21.N [Compound 11c],HIV-1 TI (CC50/EC50),"HIV-1; Table 1, PBMCs","28,000"
same,EC50,HIV-1; [9],0.0005 µM
same,CC50,PBMCs; [8],14 µM
same,HBV TI (CC50/EC50),HBV; Table 1,>56
same,EC50,"HBV; Table 1, inhibit HBV by 50%",0.444 µM
same,CC50,"HepG2; Table 1, uninfected cells",> 25 µM
same,stability of C14 chain relative to C16 linker of compound 11d,[1],near two-fold stability increase
CCCCCCCCCCCCCCCCCCSSCCOP(=O)(O)CO[C@H](C)Cn1cnc2c(N)ncnc21.N [Compound 11e],HIV-1 TI (CC50/EC50),"HIV-1; Table 1, PBMCs","11,000"
same,EC50,HIV-1; [9],0.0006 µM
same,CC50,PBMCs; [8],6.36 µM
same,HBV TI (CC50/EC50),HBV; Table 1,>50
same,EC50,"HBV; Table 1, inhibit HBV by 50%",0.505 µM
same,CC50,"HepG2; Table 1, uninfected cells",> 50 µM
CCCCCCCCCCSSCCOP(=O)(CO[C@H](C)Cn1cnc2c(N)ncnc21)OCCSSCCCCCCCCCC [Compound 12a],HIV-1 TI (CC50/EC50),"HIV-1; Table 2, PBMCs",>287
same,HIV-1 potency compared to parent nucleoside TFV,HIV-1,comparable to TFV
same,EC50,HIV-1; [10],0.349 µM
same,CC50,PBMCs; [11],> 100 µM
same,HBV TI (CC50/EC50),HBV; Table 2,>1
same,EC50,HBV; Table 2,> 100 µM
same,CC50,HepG2; Table 2,> 100 µM
CCCCCCCCCCCCSSCCOP(=O)(CO[C@H](C)Cn1cnc2c(N)ncnc21)OCCSSCCCCCCCCCCCC [Compound 12b],HIV-1 TI (CC50/EC50),"HIV-1; Table 2, PBMCs",>85.0
same,EC50,HIV-1; [10],1.18 µM
same,CC50,PBMCs; [11],> 100 µM
same,HBV TI (CC50/EC50),HBV; Table 2,>1
same,EC50,HBV; Table 2,> 100 µM
same,CC50,HepG2; Table 2,> 100 µM
CCCCCCCCCCCCCCSSCCOP(=O)(CO[C@H](C)Cn1cnc2c(N)ncnc21)OCCSSCCCCCCCCCCCCCC [Compound 12c],HIV-1 TI (CC50/EC50),"HIV-1; Table 2, PBMCs",>529
same,HIV-1 potency compared to parent nucleoside TFV,HIV-1,two-fold increase in activity
same,EC50,HIV-1; [10],0.189 µM
same,CC50,PBMCs; [11],> 100 µM
same,HBV TI (CC50/EC50),HBV; Table 2,>1
same,EC50,HBV; Table 2,> 100 µM
same,CC50,HepG2; Table 2,> 100 µM
CCCCCCCCCCCCCCCCSSCCOP(=O)(CO[C@H](C)Cn1cnc2c(N)ncnc21)OCCSSCCCCCCCCCCCCCCCC [Compound 12d],HIV-1 TI (CC50/EC50),"HIV-1; Table 2, PBMCs",4.0
same,EC50,HIV-1; [10],6.32 µM
same,CC50,PBMCs; [11],> 25 µM
same,HBV TI (CC50/EC50),HBV; Table 2,>1
same,EC50,HBV; Table 2,> 25 µM
same,CC50,HepG2; Table 2,> 25 µM
CCCCCCCCCCCCCCCCCCSSCCOP(=O)(CO[C@H](C)Cn1cnc2c(N)ncnc21)OCCSSCCCCCCCCCCCCCCCCCC [Compound 12e],HIV-1 TI (CC50/EC50),"HIV-1; Table 2, PBMCs",>76
same,HIV-1 potency compared to parent nucleoside TFV,HIV-1,comparable to TFV
same,EC50,HIV-1; [10],0.331 µM
same,CC50,PBMCs; [11],> 25 µM
same,HBV TI (CC50/EC50),HBV; Table 2,>1
same,EC50,HBV; Table 2,> 25 µM
same,CC50,HepG2; Table 2,> 25 µM
"C[C@H](Cn1cnc2c(N)ncnc21)OCP(=O)(O)OCCSSCCO [DTE-TFV, reference compound]",fold less active than TFV against HIV-1,HIV-1,5 fold
same,HIV-1 TI (CC50/EC50),"HIV-1; Table 1, PBMCs",>62.1
same,EC50,HIV-1; [9],1.61 µM
same,CC50,PBMCs; [8],> 100 µM
same,HBV TI (CC50/EC50),HBV; Table 1,>8.6
same,EC50,"HBV; Table 1, inhibit HBV by 50%",11.6 µM
same,CC50,"HepG2; Table 1, uninfected cells",> 100 µM
same,t1/2 in human plasma,[2],34 min
Nc1ncnc2c1ncn2CCOCP(=O)(O)O [adefovir],bioavailability,[3],< 1%
same,bioavailability,[4],8-11%
"tenofovir disoproxil fumarate [TDF, reference compound]",HIV-1 TI (CC50/EC50),"HIV-1; Table 1, PBMCs","9,500"
same,HIV-1 TI (CC50/EC50),"HIV-1; Table 2, PBMCs","9,500"
same,HIV-1 TI (CC50/EC50),"HIV-1; Table 3, PBMCs","9,500"
same,TI(CC50/EC50),HIV-1; Table 4,"9,500"
same,EC50,HIV-1; [7],0.0046 µM
same,EC50,HIV-1; [9],0.0046 µM
same,EC50,HIV-1; [10],0.0046 µM
same,EC50,"HIV-1; read-out: HIV-1 EC50 (PBMCs), Table 3",0.0045 µM
same,EC50,HIV-1; [5],0.0046 µM
same,CC50,PBMCs; [8],43.7 µM
same,CC50,PBMCs; [11],43.7 µM
same,CC50,"PBMCs; Table 3, read-out: HIV-1 CC50 (PBMCs)",44 µM
same,CC50,PBMCs; [6],43.7 µM
same,HBV TI (CC50/EC50),HBV; Table 1,190
same,HBV TI (CC50/EC50),HBV; Table 2,86
same,HBV TI (CC50/EC50),HBV; Table 3,190
same,EC50,"HBV; Table 1, inhibit HBV by 50%",0.34 µM
same,EC50,HBV; Table 2,0.34 µM
same,EC50,HBV; Table 3,0.34 µM
same,CC50,"HepG2; Table 1, uninfected cells",64.5 µM
same,CC50,HepG2; Table 2,29.2 µM
same,CC50,HepG2; Table 3,64.5 µM
